According to patent publication US20100285115A1, “Novel Antiretroviral Combination” (CIPLA LIMITED, priority 2007, published 2010):

Legend:
[1] = Stability study of Atazanavir and Ritonavir tablet; format: physicochemical
Description: Stability study data of Atazanavir and Ritonavir tablet: [table]

[2] = manufactured in solid dosage form such as tablet; U.S. Pat. No. 6,458,818; cited from earlier work

| Assay (%) (Limit 90-110% of Labelled amount) ([1]; 25° C./60% RH, 2 M) | Assay (%) (Limit 90-110% of Labelled amount) ([1]; 40° C./75% RH, 2 M) | Assay (%) (Limit 90-110% of Labelled amount) ([1]; Initial) | SMILES | oral bioavailability [2] |
| --- | --- | --- | --- | --- |
| 99.0 | 98 | 100.3 | COC(=O)N[C@H](C(=O)N[C@@H](Cc1ccccc1)[C@@H](O)CN(Cc1ccc(-c2ccccn2)cc1)NC(=O)[C@@H](NC(=O)OC)C(C)(C)C)C(C)(C)C [Atazanavir] | – |
| 99.3 | 96 | 99.5 | CC(C)c1nc(CN(C)C(=O)N[C@H](C(=O)N[C@@H](Cc2ccccc2)C[C@H](O)[C@H](Cc2ccccc2)NC(=O)OCc2cncs2)C(C)C)cs1 [Ritonavir] | poor |
